# According to PubChem BioAssay (NCI):
#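 Method: 48-hour compound exposure of cells in 96-well plates, five concentrations, linear interpolation of endpoints. GI50 marks 50% less growth. TGI marks complete inhibition of growth.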
# Key:
# Assay in all cases: DTP human tumour cell line panel, 48 h
# [1] = tested on: T-47D breast
# [2] = tested on: M14 melanoma
# [3] = tested on: SW-620 colon
# [4] = tested on: MALME-3M melanoma
# [5] = tested on: SR leukemia
# [6] = tested on: NCI-H23 lung
# [7] = tested on: NCI-H460 lung
# [8] = tested on: SNB-19 CNS
# [9] = tested on: SF-268 CNS
# [10] = tested on: EKVX NSCLC
# [11] = tested on: CCRF-CEM leukemia
# [12] = tested on: HCC-2998 colon
# [13] = tested on: ACHN renal
# [14] = tested on: SK-OV-3 ovarian
# [15] = tested on: RPMI-8226 leukemia
# [16] = tested on: UO-31 renal
# [17] = tested on: MDA-MB-435
# [18] = tested on: SK-MEL-5 melanoma
# [19] = tested on: HOP-62 NSCLC
# [20] = tested on: NCI-H522 lung
# [21] = tested on: UACC-257 melanoma
# [22] = tested on: SK-MEL-2 melanoma
# [23] = tested on: MOLT-4 leukemia
# [24] = tested on: OVCAR-3 ovarian
# [25] = tested on: SF-539 CNS
# [26] = tested on: HT29 colon
# [27] = tested on: SNB-75 CNS
# [28] = tested on: K-562 leukemia
# [29] = tested on: U251 CNS
# [30] = tested on: CAKI-1 renal
# [31] = tested on: HL-60(TB) leukemia
# [32] = tested on: LOX IMVI melanoma
# [33] = tested on: MDA-N
# [34] = tested on: A498 renal
# [35] = tested on: KM12 colon
# [36] = tested on: HCT-116 colon
# [37] = tested on: MDA-MB-231 breast
# [38] = tested on: SN12C renal
# [39] = tested on: SK-MEL-28 melanoma
# [40] = tested on: DU-145 prostate
# [41] = tested on: OVCAR-8 ovarian
# [42] = tested on: IGROV1 ovarian
# [43] = tested on: OVCAR-5 ovarian
# [44] = tested on: HS 578T breast
# [45] = tested on: A549 NSCLC
# [46] = tested on: 786-0 renal
# [47] = tested on: OVCAR-4 ovarian
# [48] = tested on: TK-10 renal
# [49] = tested on: NCI-H226 lung
# [50] = tested on: HOP-92 NSCLC
# [51] = tested on: PC-3 prostate
# [52] = tested on: NCI/ADR-RES ovarian
# [53] = tested on: SF-295 CNS
# [54] = tested on: COLO 205 colon
# [55] = tested on: RXF 393 renal
# [56] = tested on: HCT-15 colon
# [57] = tested on: MCF7 breast
# [58] = tested on: BT-549 breast
# [59] = tested on: UACC-62 melanoma
smiles,measurement,setting,value
CCCCCCCCCc1cc(=O)c2c(O)cc(O)cc2o1,TGI,[1],51.1 µM
same,TGI,[2],34.9 µM
same,TGI,[3],78.1 µM
same,TGI,[4],32 µM
same,TGI,[5],32.7 µM
same,TGI,[6],34.2 µM
same,TGI,[7],50.6 µM
same,TGI,[8],34.7 µM
same,TGI,[9],14.5 µM
same,TGI,[10],37.5 µM
same,TGI,[11],44.7 µM
same,TGI,[12],35.8 µM
same,TGI,[13],34.5 µM
same,TGI,[14],32.2 µM
same,TGI,[15],22.3 µM
same,TGI,[16],32.6 µM
same,TGI,[17],41.1 µM
same,TGI,[18],37.6 µM
same,TGI,[19],28.5 µM
same,TGI,[20],31.5 µM
same,TGI,[21],35.5 µM
same,TGI,[22],34.3 µM
same,TGI,[23],22.3 µM
same,TGI,[24],30.4 µM
same,TGI,[25],34.4 µM
same,TGI,[26],34.4 µM
same,TGI,[27],33.2 µM
same,TGI,[28],26 µM
same,TGI,[29],77.2 µM
same,TGI,[30],> 100 µM
same,TGI,[31],32.3 µM
same,TGI,[32],44.7 µM
same,TGI,[33],> 100 µM
same,TGI,[34],35.2 µM
same,TGI,[35],21.3 µM
same,TGI,[36],47.6 µM
same,TGI,[37],> 100 µM
same,TGI,[38],38.9 µM
same,TGI,[39],52.2 µM
same,TGI,[40],36.7 µM
same,TGI,[41],40.2 µM
same,TGI,[42],32.4 µM
same,TGI,[43],32 µM
same,TGI,[44],40.6 µM
same,TGI,[45],35.5 µM
same,TGI,[46],42.8 µM
same,TGI,[47],40.9 µM
same,TGI,[48],34.5 µM
same,TGI,[49],36 µM
same,TGI,[50],33.7 µM
same,TGI,[51],32.1 µM
same,TGI,[52],35.7 µM
same,TGI,[53],36 µM
same,TGI,[54],54.2 µM
same,TGI,[55],31.3 µM
same,TGI,[56],36 µM
COC(=O)[C@]12CC[C@@H](C)[C@H](C)[C@@H]1C1=CC[C@@H]3[C@@]4(C)C(C=O)=C[C@@](C)(COC(=O)c5ccco5)C4=CC[C@@]3(C)[C@]1(C)CC2,GI50,[1],2.68 µM
same,TGI,[1],38.2 µM
same,GI50,[2],0.104 µM
same,TGI,[2],6.93 µM
same,GI50,[3],3.1 µM
same,TGI,[3],11.2 µM
same,GI50,[4],0.0383 µM
same,TGI,[4],0.444 µM
same,GI50,[5],2.12 µM
same,TGI,[5],6.66 µM
same,GI50,[57],2.77 µM
same,TGI,[57],10.3 µM
same,GI50,[6],3.25 µM
same,TGI,[6],25.7 µM
same,GI50,[7],2.66 µM
same,TGI,[7],7.61 µM
same,GI50,[8],5.12 µM
same,TGI,[8],> 100 µM
same,GI50,[9],2.93 µM
same,TGI,[9],9.92 µM
same,GI50,[10],2.74 µM
same,TGI,[10],9.17 µM
same,GI50,[11],2.87 µM
same,TGI,[11],8.73 µM
same,GI50,[12],2.76 µM
same,TGI,[12],7.17 µM
same,GI50,[13],0.118 µM
same,TGI,[13],2.56 µM
same,GI50,[14],8.41 µM
same,TGI,[14],75.1 µM
same,GI50,[15],1.49 µM
same,TGI,[15],5.01 µM
same,GI50,[16],1.92 µM
same,TGI,[16],5.03 µM
same,GI50,[17],0.0663 µM
same,TGI,[17],2.96 µM
same,GI50,[18],0.189 µM
same,TGI,[18],1.17 µM
same,GI50,[19],3.4 µM
same,TGI,[19],13.6 µM
same,GI50,[20],3.31 µM
same,TGI,[20],10.9 µM
same,GI50,[21],0.108 µM
same,TGI,[21],0.65 µM
same,GI50,[22],0.273 µM
same,TGI,[22],0.743 µM
same,GI50,[23],2.11 µM
same,TGI,[23],7.1 µM
same,GI50,[24],2.17 µM
same,TGI,[24],4.76 µM
same,GI50,[25],2.57 µM
same,TGI,[25],6.94 µM
same,GI50,[26],2.98 µM
same,TGI,[26],9.47 µM
same,GI50,[27],2.47 µM
same,TGI,[27],25.5 µM
same,GI50,[28],3.7 µM
same,TGI,[28],17.3 µM
same,GI50,[29],2.06 µM
same,TGI,[29],10.8 µM
same,GI50,[30],3.32 µM
same,TGI,[30],25.2 µM
same,GI50,[31],2.85 µM
same,TGI,[31],5.72 µM
same,GI50,[32],1.7 µM
same,TGI,[32],3.15 µM
same,GI50,[34],2.81 µM
same,TGI,[34],16.9 µM
same,GI50,[35],3.27 µM
same,TGI,[35],19.9 µM
same,GI50,[36],2.2 µM
same,TGI,[36],6.47 µM
same,GI50,[37],2.73 µM
same,TGI,[37],9.47 µM
same,GI50,[38],4.04 µM
same,TGI,[38],> 100 µM
same,GI50,[39],0.053 µM
same,TGI,[39],3.01 µM
same,GI50,[40],3.81 µM
same,TGI,[40],15.9 µM
same,GI50,[41],3.67 µM
same,TGI,[41],15.9 µM
same,GI50,[42],4.06 µM
same,TGI,[42],24.3 µM
same,GI50,[58],4.93 µM
same,TGI,[58],32.4 µM
same,GI50,[43],2.32 µM
same,TGI,[43],6.99 µM
same,GI50,[44],3.72 µM
same,TGI,[44],34.1 µM
same,GI50,[45],3.28 µM
same,TGI,[45],14 µM
same,GI50,[59],0.0831 µM
same,TGI,[59],2.24 µM
same,GI50,[46],2.97 µM
same,TGI,[46],9.17 µM
same,GI50,[47],3.54 µM
same,TGI,[47],22.4 µM
same,GI50,[48],2.42 µM
same,TGI,[48],12.5 µM
same,GI50,[49],2.33 µM
same,TGI,[49],7.79 µM
same,GI50,[50],0.671 µM
same,TGI,[50],7.71 µM
same,GI50,[51],2.97 µM
same,TGI,[51],> 100 µM
same,GI50,[52],4.84 µM
same,TGI,[52],26.1 µM
same,GI50,[53],2.39 µM
same,TGI,[53],8.83 µM
same,GI50,[54],0.0247 µM
same,TGI,[54],0.0614 µM
same,GI50,[55],1.7 µM
same,TGI,[55],3.77 µM
same,GI50,[56],1.91 µM
same,TGI,[56],4.09 µM
